Results on six substances are retold here after patent publication US7498300B2, “CRFR1 selective ligands” (The Salk Institute for Biological Studies, priority 2001, dated 2009).

Test [1] in a line: In vivo lowering of blood pressure on peripheral administration. The following applies: administered peripherally.
Experimental: (§1) In vivo testing is carried out using the general procedure set forth in C.
The test system of test [2] is cultured rat pituitary cells. Put plainly: In vitro stimulation of ACTH and β-endorphin secretion by cultured rat pituitary cells. The class given is cell-based.
Experimental: as §1
Test [3] concerns the target T1, human CRFR1 (Homo sapiens, UniProt P34998).
T1 construct: expressed in transfected cells
T1 sequence (P34998 24-415): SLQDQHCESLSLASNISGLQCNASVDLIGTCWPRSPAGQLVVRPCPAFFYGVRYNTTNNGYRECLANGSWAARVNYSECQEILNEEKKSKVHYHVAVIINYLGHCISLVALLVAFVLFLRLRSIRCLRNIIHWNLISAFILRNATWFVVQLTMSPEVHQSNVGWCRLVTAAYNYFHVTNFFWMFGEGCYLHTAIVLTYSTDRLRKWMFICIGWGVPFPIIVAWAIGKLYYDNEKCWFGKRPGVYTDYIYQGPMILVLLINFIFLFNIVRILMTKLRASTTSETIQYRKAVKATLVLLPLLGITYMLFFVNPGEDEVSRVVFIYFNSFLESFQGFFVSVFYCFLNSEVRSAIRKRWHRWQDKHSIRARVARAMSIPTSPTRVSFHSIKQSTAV
Put plainly: Competitive binding assay, CHO cells stably expressing human CRFR1, displacement of 125I-(Nle21,Tyr32) ovine CRF. For orientation: Displacement assays read how much labelled ligand stays bound in the presence of the test substance.
Experimental: Binding affinity is a term used to refer to the strength of interaction between ligand and receptor. […] Ki (inhibitory binding affinity constant) is determined using a “standard” or “tracer” radioactive ligand and thus measures the displacement of the tracer from the receptor or binding protein; it is most properly expressed with reference to such tracer. However, so long as these assays are carefully performed under specific conditions with relatively low concentrations of receptor or the like, the calculated Ki will be substantially the same as its dissociation constant KD. […] It is particularly efficient to test for Ki because only a single tracer need be labelled, e.g. radioiodinated.
Binding assays with cells expressing human CRFR1 are carried out as described in the Chen et al. P.N.A.S., supra. The affinities of test peptides for CRFR1 and CRFR2 stably expressed in CHO cells were determined by competitive displacement of ^125I-(Nle^21, Tyr^32) ovine CRF (for CRFR1) or of [^125I-Tyr^o-]Ucn (for CRFR2) as described.

Test [4] concerns the target T2, human CRFR2 (Homo sapiens, UniProt Q13324).
T2 construct: expressed in transfected cells
T2 sequence (Q13324 1-411): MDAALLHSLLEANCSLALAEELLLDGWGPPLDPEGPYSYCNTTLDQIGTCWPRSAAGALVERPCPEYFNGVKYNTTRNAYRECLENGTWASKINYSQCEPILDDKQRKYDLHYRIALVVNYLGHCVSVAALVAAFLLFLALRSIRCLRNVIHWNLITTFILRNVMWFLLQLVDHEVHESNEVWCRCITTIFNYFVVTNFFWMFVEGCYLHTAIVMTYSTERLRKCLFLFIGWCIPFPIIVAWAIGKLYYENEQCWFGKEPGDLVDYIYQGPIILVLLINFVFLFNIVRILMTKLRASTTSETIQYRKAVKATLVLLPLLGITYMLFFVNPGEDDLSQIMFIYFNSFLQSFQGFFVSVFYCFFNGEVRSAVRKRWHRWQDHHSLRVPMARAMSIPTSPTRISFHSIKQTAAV
Put plainly: Competitive binding assay, CHO cells stably expressing human CRFR2, displacement of [125I-Tyr0]Ucn.
Experimental: The affinities of test peptides for CRFR1 and CRFR2 stably expressed in CHO cells were determined by competitive displacement of ^125I-(Nle^21, Tyr^32) ovine CRF (for CRFR1) or of [^125I-Tyr^o-]Ucn (for CRFR2) as described.

For test [5], the target named is CRFR2 (Mus musculus, UniProt Q60748). The settings on record: Ruhmann et al., P.N.A.S. 95, 15264-15269 (1998); cited from earlier work.
Chain of CRFR2 (Q60748 27-431 isoform Q60748-2 limits assumed): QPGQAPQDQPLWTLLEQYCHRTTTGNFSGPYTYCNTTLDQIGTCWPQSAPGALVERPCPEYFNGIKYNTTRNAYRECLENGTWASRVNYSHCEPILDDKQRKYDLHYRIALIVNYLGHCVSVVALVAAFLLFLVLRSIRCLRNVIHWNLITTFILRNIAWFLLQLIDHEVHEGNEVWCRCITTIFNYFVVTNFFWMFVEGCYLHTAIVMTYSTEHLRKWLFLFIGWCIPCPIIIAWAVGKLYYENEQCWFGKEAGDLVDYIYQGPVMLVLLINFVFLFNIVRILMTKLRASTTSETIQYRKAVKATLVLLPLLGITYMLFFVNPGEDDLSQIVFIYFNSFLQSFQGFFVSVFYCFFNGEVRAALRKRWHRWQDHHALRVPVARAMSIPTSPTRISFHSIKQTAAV

For “(cyclo 31-34)[Ac-Pro^4, D-Phe^12, Nle^21,38, CML^27, Glu^31, Lys^34]-r/hCRF(4-41) [Example 5 C]”, the “lowering of blood pressure” value in test [1] is recorded as “very significant lowering of blood pressure”. For the same substance, the “stimulation of the secretion of ACTH and β-END-LI” value (“stimulation” below) in test [2] was “stimulates”. Besides, the “binding to CRFR1 (in words)” value in test [3] is reported as “binds strongly”. For the same substance, the “binding to CRFR2 (in words)” value in test [4] was “only very weakly”.
Turning to “(cyclo 31-34)[Ac-Pro^4, D-Phe^12, Nle^21,38, Glu^31, Aib^33, Lys^34]-r/hCRF(4-41) [Example 4]”, in test [1], the “lowering of blood pressure” value is recorded as “very significant lowering of blood pressure”. For the same substance, in test [2], the “stimulation” value is “strongly stimulates”. For the same substance, the “binding to CRFR1 (in words)” value in test [3] is on record as “bind strongly”. In test [4], the “binding to CRFR2 (in words)” value was “only very weaker”.
The like results for “(cyclo 31-34)[Ac-Pro^4, D-Phe^12, Nle^21,38, Glu^31, Lys^34, CML^37]-r/hCRF(4-41) [Example 5 D]” were, in that order, “very significant lowering of blood pressure”, “stimulates”, “binds strongly” and “only very weakly”.
With “(cyclo 31-34)[Ac-Pro^4, D-Phe^12, Nle^21,38, Glu^31, Lys^34]-oCRF(4-41) [Example 2]”, the “lowering of blood pressure” value in test [1] was “very significant lowering of blood pressure”. For the same substance, the “stimulation” value in test [2] is “strongly stimulates”. Further, the “binding to CRFR1 (in words)” value in test [3] is reported as “bind strongly”. In test [4], the “binding to CRFR2 (in words)” value is “poorly”.
“(cyclo 31-34)[Ac-Pro^4, D-Phe^12, Nle^21,38, Glu^31, Lys^34]-porcine CRF(4-41) [Example 3 C]”: the “lowering of blood pressure” value in test [1] was “very significant lowering of blood pressure”. In addition, the “stimulation” value in test [2] was “stimulates”. For the same substance, in test [3], the “binding to CRFR1 (in words)” value was “binds strongly”. Also, the “binding to CRFR2 (in words)” value in test [4] was “only very weakly”.
With [D-Phe^11, His^12]-sauvagine(11-40), the “antagonism for CRFR2 compared with the previously best reported compound” value in test [5] is “close to equal antagonism”.
